Assay results published in PubChem BioAssay AID1963986 (Molecular Pharmacology Branch, DTP, NCI, 2024).

System: 171881-019-R-J1-PDC tumor spheroid viability
Assay: Anticancer human tumor 171881-019-R-J1-PDC patient-derived invasive breast carcinoma cell line growth inhibition [PI3K]
Conditions: spheroids with HUVEC and MSC; for IC50: curve of first compound; for viability, T/C: stronger effect = lower value; active = viability on the fitted dose curve at most 10% of control; inactive = the rest
Description: Combinatorial screen of targeted agents with the PI3K inhibitors inavolisib, alpelisib, duvelisib, and copanlisib in multi-cell type tumor spheroids
A high-throughput screen of multi-cell type tumor spheroids was designed to identify active combinations of targeted small molecules and PI3K pathway inhibitors. Complex spheroids include a stromal component modeled by human endothelial cells (HUVEC) and fibroblasts modeled by human mesenchymal stem cells (MSCs). The concentration ranges selected for each drug and investigational agent were based upon clinically achievable concentrations if the clinical Cmax of the agent was known.
Compounds. The drugs and investigational agents: inavolisib (NSC800729), alpelisib (NSC765974), duvelisib (NSC772469), copanlisib (NSC816437), ipatasertib (NSC767898), afuresertib (NSC778305), talazoparib (NSC767125), sapanisertib (NSC764658), selumetinib (NSC741078), tovorafenib (DAY101, NSC766906), vemurafenib (NSC761431), ravoxertinib (NSC781343), sotorasib (NSC818433), MRTX1133 (NSC 836407), abemaciclib (NSC 768073), palbociclib (NSC758247), venetoclax (NSC 766270), SY5609 (NSC837396), enzalutamide (NSC755605), and darolutamide (NSC825331), were obtained from the National Cancer Institute (NCI) Developmental Therapeutics Program Chemical Repository. The FDA-approved anticancer drug set is available from the NCI Developmental Therapeutics Program. […] The stock solutions were prepared in dimethyl sulfoxide (DMSO, Sigma-Aldrich, St. Louis, MO, cat. D2650) at 800-fold the tested concentration and stored at -70 degrees C prior to their use. All drugs and investigational agents were tested over a range starting from a high concentration at or near the clinical Cmax and decreasing in half-log increments. If the clinical Cmax for an agent had not been determined, the highest concentration tested was 10 microM.
Cell Culture. All cells were maintained in an incubator at 37 degrees C and 5% CO2 with 95% humidity. The PDC lines were cultured according to standard operating procedures established by the NCI PDMR (https://pdmr.cancer.gov/sops/default.htm). All PDCs were thawed and cultured in Matrigel-coated flasks prepared with a working solution of 1X Ham's F-12 nutrient mix, without supplementation (Invitrogen, Waltham, MA, cat. 11765054), 100 U/mL penicillin-streptomycin (Invitrogen, cat. 15140122), and 2.5% Matrigel (Corning Inc., Corning, NY, cat. 354248) for the first three passages. The 354836-022-R-J1-PDC, 475296-252-R-J1-PDC, and 997726-040-R-J2-PDC lines were cultured in 6A media, which includes advanced DMEM/F-12 (Thermo Fisher Scientific, cat. 12634028), 10 mM HEPES (Thermo Fisher Scientific, cat. 15630080), 1X GlutaMAX supplement (Thermo Fisher Scientific, cat. 35050061), 0.1 mg/mL primocin (InvivoGen, San Diego, CA, cat. ant-pm-2), 10% defined fetal bovine serum, heat inactivated (HyClone Laboratories Inc., Logan, UT, cat. SH30070.03HI), 50% L-WRN conditioned media (ATCC, cat. CRL-3276), 1.25 mM N-Acetyl-L-cysteine (Sigma-Aldrich, cat. A9165), 10 mM nicotinamide (Sigma-Aldrich, cat. N0636), 1X B-27 supplement (Thermo Fisher Scientific, cat. 17504044), 1X N-2 supplement (Thermo Fisher Scientific, cat. 17502048), and 10 microM Y-27632 dihydrochloride (Tocris Bioscience, Bristol, United Kingdom, cat. 1254). The 624824-186-R-J2-PDC line was cultured in 6C/Colon 1B media, which includes all 6A media components plus 50 ng/mL human EGF recombinant protein (Thermo Fisher Scientific, cat. PHG0311). […]
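Note: spheroids exposed to compound for 7 days before viability read.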
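Throughout, for viability, T/C: 100% = DMSO vehicle-treated spheroids.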

CNC(=O)c1ccc(N2C(=S)N(c3ccc(C#N)c(C(F)(F)F)c3)C(=O)C2(C)C)cc1F + CC(Nc1ccc2c(c1)OCCn1cc(N3C(=O)OCC3C(F)F)nc1-2)C(N)=O
< 0.0316 µM: IC50 (second compound 0.1 µM) | IC50 (second compound 0.316 µM) | IC50 (second compound 1 µM)
3.83 µM: IC50 (second compound 0.0316 µM)
inactive: viability, T/C (second compound 0.00316 µM, first compound 0.0316 µM) 82.6% | viability, T/C (second compound 0.00316 µM, first compound 0.1 µM) 88% | viability, T/C (second compound 0.00316 µM, first compound 0.316 µM) 82.4% | viability, T/C (second compound 0.00316 µM, first compound 1 µM) 93.6% | viability, T/C (second compound 0.00316 µM, first compound 3.16 µM) 81% | viability, T/C (second compound 0.00316 µM, first compound 10 µM) 69.5% | viability, T/C (second compound 0.01 µM, first compound 0.0316 µM) 75.1% | viability, T/C (second compound 0.01 µM, first compound 0.1 µM) 73.8% | viability, T/C (second compound 0.01 µM, first compound 0.316 µM) 77% | viability, T/C (second compound 0.01 µM, first compound 1 µM) 74.5% | viability, T/C (second compound 0.01 µM, first compound 3.16 µM) 78.3% | viability, T/C (second compound 0.01 µM, first compound 10 µM) 62.3% | viability, T/C (second compound 0.0316 µM, first compound 0.0316 µM) 55.2% | viability, T/C (second compound 0.0316 µM, first compound 0.1 µM) 56.7% | viability, T/C (second compound 0.0316 µM, first compound 0.316 µM) 57% | viability, T/C (second compound 0.0316 µM, first compound 1 µM) 56.6% | viability, T/C (second compound 0.0316 µM, first compound 3.16 µM) 53.1% | viability, T/C (second compound 0.0316 µM, first compound 10 µM) 33.8% | viability, T/C (second compound 0.1 µM, first compound 0.0316 µM) 39.1% | viability, T/C (second compound 0.1 µM, first compound 0.1 µM) 41.5% | viability, T/C (second compound 0.1 µM, first compound 0.316 µM) 38.1% | viability, T/C (second compound 0.1 µM, first compound 1 µM) 39.9% | viability, T/C (second compound 0.1 µM, first compound 3.16 µM) 38% | viability, T/C (second compound 0.1 µM, first compound 10 µM) 30.5% | viability, T/C (second compound 0.316 µM, first compound 0.0316 µM) 28.2% | viability, T/C (second compound 0.316 µM, first compound 0.1 µM) 27.9% | viability, T/C (second compound 0.316 µM, first compound 0.316 µM) 25.2% | viability, T/C (second compound 0.316 µM, first compound 1 µM) 28.5% | viability, T/C (second compound 0.316 µM, first compound 3.16 µM) 24.8% | viability, T/C (second compound 0.316 µM, first compound 10 µM) 22.1% | viability, T/C (second compound 1 µM, first compound 0.0316 µM) 20.8% | viability, T/C (second compound 1 µM, first compound 0.1 µM) 21.3% | viability, T/C (second compound 1 µM, first compound 0.316 µM) 24.9% | viability, T/C (second compound 1 µM, first compound 1 µM) 18.5% | viability, T/C (second compound 1 µM, first compound 3.16 µM) 20.1% | viability, T/C (second compound 1 µM, first compound 10 µM) 18.7%
> 10 µM: IC50 (second compound 0.00316 µM) | IC50 (second compound 0.01 µM)
